1 substance from article PMC9102668, “Highly Cytotoxic Osmium(II) Compounds and Their Ruthenium(II) Analogues Targeting Ovarian Carcinoma Cell Lines and Evading Cisplatin Resistance Mechanisms” (International Journal of Molecular Sciences, 2022) can be followed below.

Common to all, as to assay type: cell-based
One assay deals with MCF10A. Kind of assay: IC50 on non-cancerous cell cultures. To be noted: non-cancerous breast epithelial cell line.
A further assay has as its system SKOV3 cells. Nature of the assay: Cell death rate, PI staining of live cells (FACS). The following applies: parental SKOV3, 15 µM, 48 h. The procedure: (§1) For cell death rate analysis, live cells were stained with PI immediately after 48 h treatment. […] Furthermore, resistant cells show much lower Cisplatin-induced cell death rates (Figure 7). […] In A2780 cells, both compounds trigger similar cell death rates in parental and Cisplatin-resistant cells. Cisplatin-resistant SKOV3 are much more sensitive to both ruthenium(II) complexes than the parental counterpart, with a median of 3.3-fold higher sensitivity.
(§2) To examine cell cycle distribution and cell death rates, 30,000 cells were seeded in 12 well plates. After attaching for 24 h cells were treated with Cisplatin, Ru3 and Ru14 for 48 h at various concentrations for cell cycle and cell death analyses. For cell death analysis, immediately after treatment cells were stained with Propidium Iodid (PI) (1 µg/mL) on ice and the number of dead cells was measured using BD Canto II. For cell cycle distribution, cells recovered for 24 h after treatment. Afterwards, cells were fixed in ice-cold, 50% EtOH for 24 h at −20 °C. For DNA staining, fixed cells were incubated in PBS with 0.05% Triton-X, 0.1 µg/mL RNaseA and 50 µg/mL PI for 1 h at 4 °C in dark. DNA content was measured using BD Canto II.

A further assay has as its system A2780 cells. Kind of assay: Cell death rate, PI staining of live cells (FACS). To be noted: parental A2780, 15 µM, 48 h, PI staining. The protocol: as §1, §2
In assay [1] the test system is A2780 and SKOV3 cells and the resistant subcultures. Nature of the assay: Cell cycle distribution, PI staining and FACS. The following applies: 5 µM, parental A2780 and SKOV3 cells, 48 h treatment, 24 h recovery. The procedure: The reduced viability under treatment, as measured by the MTT assay, can be a result of cell cycle arrest and/or increased cell death. To further evaluate the anticancer properties of the ruthenium(II) complexes we measured cell cycle distribution and cell death rates after treatment with Ru3 or Ru14. After seeding and attaching, the cells were treated for 48 h with different concentrations of substances. For cell cycle distribution measurements, a recovery phase of 24 h was added after treatment, and cells were fixed and stained with PI for the DNA content. Arresting of cells in specific cell cycle phases gives them time to resolve the DNA damage (G1 arrest) or is an initial step to apoptosis if DNA damage is too severe (G2/M arrest).
as §2

A further assay concerns Keratinocytes. Nature of the assay: IC50 on non-cancerous cell cultures. To be noted: normal primary short-term cell culture.
A further assay relates to Fibroblasts. Nature of the assay: IC50 on non-cancerous cell cultures. The following applies: normal primary short-term cell culture.
The next assay relates to A2780cis. Nature of the assay: MTT assay (CellTiter96), cytotoxic activity. The protocol: (§3) The biological behaviour of all substances was characterized by their cytotoxic activity against a panel of cell lines enabling an understanding of the structure-activity relationship. Cytotoxic activity was determined on ovarian carcinoma cell lines SKOV3 and A2780 as well as their Cisplatin resistant analogues (SKOV3cis and A2780cis) and the lung carcinoma cell line A549. Due to a low solubility in water, dmso is used as a solvent for the preparation of a dilution series in cell culture experiments. The toxic influence of dmso was determined earlier and experiments were carried out with 0.5% dmso in cell culture media and this concentration was used as reference sample in each MTT assay (details: Section 3). […] Resistance factors (RF) were determined for all substances (for IC50 values and RF of β-Hydroxydithiocinnamic acid esters L1–L18, see Tables S2 and S3, Supplementary part). All investigated ruthenium(II) compounds show lower RF values than Cisplatin on ovarian carcinoma cell lines, ranging from 0.2 to 1.5 (Table 3). Whereas the IC50 values on the non-resistant cell lines are in most cases higher than the IC50 of the reference substance, no increase of IC50 values is observed for the resistant cell lines. Contrary, eight ruthenium complexes show lower IC50 values on SKOV3cis than Cisplatin and four compounds on A2780cis. Thus, it can be concluded that these compounds are able to bypass the Cisplatin resistance mechanism in these cell lines pointing to a different mechanism of action.
(§4) Ovarian cancer cell lines were cultured under standard conditions (5% CO2, 37 °C, 90% humidity) in RPMI medium supplemented with 10% FCS, 100 U/mL penicillin and 100 µg/mL streptomycin (Life Technologies, Dreieich, Germany). Cisplatin (Sigma, Taufkirchen, Germany) was freshly dissolved at 1 mg/mL in 0.9% NaCl solution and diluted appropriately. New ruthenium(II) complexes and ligands were dissolved in dmso. Platinum-resistant A2780 and SKOV3 cells were established by repeated rounds of 3-day incubations with increasing amounts of Cisplatin starting with 0.1 µM. The concentration was doubled after 3 incubations, interrupted by recovery phases with normal medium. […] Determinations of IC50 values were carried out using the CellTiter96 non-radioactive proliferation assay (MTT assay, Promega, Mannheim, Germany). After seeding 5000 cells per well in a 96-well plate, cells were allowed to attach for 24 h and were incubated for 48 h with different concentrations of the substances ranging from 0 to 500 µM for Ruthenium and 0 to 1000 µM for ligand tests (0, 1, 10, 50, 100, 500, 1000 µm), for Cisplatin from 0 to 100 µM (0.1, 1, 5, 10, 50, 100 µM). Each measurement was done in triplicate and repeated 3 times. The proportion of viable cells was quantified by the MTT assay and after background subtraction relative values compared to the mean of medium controls were calculated. Non-linear regression analyses applying the Hill slope were run in GraphPad 5.0 software.

The subject of a further assay is SKOV3cis. Kind of assay: MTT assay (CellTiter96), cytotoxic activity. The protocol:
as §3, §4
A general note: Formazan colour is commonly taken as a measure of viable cells.

Another assay deals with A2780. Nature of the assay: MTT assay (CellTiter96), cytotoxic activity. The following applies: 48 h incubation. The procedure:
as §3, §4

The next assay concerns SKOV3. Nature of the assay: MTT assay (CellTiter96), cytotoxic activity. The following applies: 48 h incubation. The procedure:
as §3, §4

A further assay relates to A549. Kind of assay: MTT assay (CellTiter96), cytotoxic activity. To be noted: lung carcinoma cell line, 48 h incubation. The protocol:
as §3, §4

As usually defined, the IC50 is the concentration needed to halve the response being measured. High values mean weaker potency, low ones greater potency.

Take cis-[Pt(NH3)2Cl2] [Cisplatin]: the IC50 in the assay with MCF10A was found to be 3.3 µM; with Keratinocytes it was 5.7 µM; in the assay with Fibroblasts, 4.1 µM; with A2780cis (Cisplatin resistant A2780, MTT assay, 48 h incubation), 6.1 µM; with SKOV3cis (Cisplatin resistant SKOV3, MTT assay, 48 h incubation), 13.5 µM; in the assay on A2780, 1.3 µM. For the same substance, the IC50 in the assay with SKOV3 was determined as 3.8 µM; in the assay with A549, 7.6 µM. In addition, the “cell death compared to untreated cells” value in the assay on SKOV3 cells stood at 6.3 fold; in the assay on A2780 cells it was 29.9 fold. In addition, the “effect on cell cycle distribution” value in assay [1] is given as “cell cycle arrest in G2/M phase”. Further, the “RF A2780 (resistance factor)” value in the assay with A2780cis (A2780cis vs A2780) is reported as 4.7. For the same substance, the “RF SKOV3 (resistance factor)” value with SKOV3cis (SKOV3cis vs SKOV3) is given as 3.6.
